Source: patent publication US12419832B2, “Intratumoral delivery of bortezomib” (Cognos Therapeutics, Inc., priority 2018, dated 2025)
“Also recorded” adds a separate entry of the source. Where two headings read alike, the source gives them in different places.

Key:
[1] = test system: glioma stem cells and normal stem cells; details: cited from earlier work
20S proteasome = 20S proteasome activity assay on lysates of tumor-bearing brains; assay type: in vivo, mice; details: IT 3.6 μg total, Alzet pump
Experimental: FIG. 5. […] Animals were treated by intratumorally administration of bortezomib (3.6 μg total) using the Alzet pump. After 5, 7 or 10 days, animals were euthanized, tumor-bearing brains were harvested, and lysates prepared for the proteasome activity assay. Control values were obtained from vehicle-treated brains at 5, 7, and 10 days.
Brain lysates were prepared by homogenization of tumor-bearing brains in phosphate-buffered saline. Supernatants were collected by centrifugation at 12,000 rpm for 15 minutes at 4° C. Total protein concentration was measured by the BCA protein assay, and 100 μg of total protein was used to measure proteasome activity. The 20S proteasome assay kit (EMD Millipore) was used according to manufacturer's instructions. The assay is based on detection of fluorophore 7-amino-4-methylcoumarin (AMC) after cleavage from the labeled substrate LLVYAMC. The free AMC fluorescence was quantified using 380-nm excitation and 460-nm emission filters.

[2] = test system: U87 glioma cells implanted subcutaneously; experiment: Subcutaneous glioma xenograft tumor model, U87; assay type: in vivo, athymic nude mice; details: 0.3 mg/kg (36 μg total), vs vehicle
Experimental: (§1) FIGS. 2A-2B. […] FIG. 2A: Glioma cells (U251) were implanted subcutaneously into athymic nu/nu mice. Fourteen days later, intravenous treatment was initiated: vehicle treatment (circle); bortezomib (36 μg total) (square). Subsequently animals were left untreated for 14 days. […] FIG. 2B: Glioma cells (U87) were implanted subcutaneously in athymic nude mice. Bortezomib was administered at a total dose of 36 μg by intravenous injection beginning on Day 30 post-implantation.
(§2) The animal protocol was approved by the institutional animal care and use committee of the University of Southern California. All mice were maintained in a pathogen-free environment throughout the experiment. For the subcutaneous tumor xenograft model, 5×10^5 human glioma cells (U87, U251, and LN229) suspended in a volume of 50 μl phosphate-buffered saline were implanted into the right flank of 30 athymic nude mice (Harlan, Inc.). Tumors were palpable approximately 2-3 weeks post-implantation. The animals were divided randomly into 5 groups of 6 mice, and treatment was initiated according to protocol.

[3] = Dose escalation, intracerebral osmotic mini-pump, normal nontumor-bearing mice
Experimental: The doses of bortezomib used in these experiments were determined by injecting escalating doses of the drug intracerebrally (delivered by osmotic mini-pump) into normal, nontumor-bearing mice. […] In FIG. 4, treatment groups (n=6) were vehicle (saline-filled pump); bortezomib given IV (36 μg in total); bortezomib IT (low dose, 0.36 μg); bortezomib IT (medium dose, 1.2 μg); and bortezomib IT (high dose, 3.6 μg).

malignant gliomas / GBM = details: cited from earlier work
[4] = test system: human glioma cells (U251, LN229, U87); experiment: MTT cytotoxicity assay on glioma cells; assay type: cell-based; details: Glioma cell, 3 cell lines (U251, LN229, U87), 48 hours, read-out: median inhibitory concentrations (IC50)
Experimental: Glioma cells (U251, LN229, U87) were treated with bortezomib (0-25 nM) for 48 hours. Cell death was evaluated using the MTT assay. O.D.=optical density.
Human glioma cells (U87, U251, and LN229) were cultured in DMEM, supplemented with 10% fetal bovine serum and 1% penicillin-streptomycin, and incubated in 5% CO2. Bortezomib (Velcade) was purchased from the University of Southern California/Norris Comprehensive Cancer Center pharmacy. Bortezomib has been approved by the FDA for clinical use. The sterile 14-day Alzet mini-osmotic pump (model 2002) was used in these experiments. The Alzet mini-osmotic pump has a reservoir volume of 200 μl and a delivery rate of 0.5 μl/hour. The brain infusion kit, which includes the pump and distribution tubing, was purchased from DURECT Corporation.
Glioma cells (5000 cells/well) were seeded in 96-well plates. After 24 hours, bortezomib was added to the cells at different concentrations, and the cells were incubated for 48 hours. The monotetrazolium (MTT) assay was performed according to the manufacturer's protocol (Calbiochem EMD, Millipore). Absorbance was measured using a microtiter plate reader (Molecular Devices) at 490 nm. Percent viability was calculated relative to untreated control cells. All experiments were performed in triplicate.

[5] = test system: U251 glioma cells implanted subcutaneously; experiment: Subcutaneous glioma xenograft tumor model, U251; assay type: in vivo, athymic nu/nu mice; details: IV 0.3 mg/kg twice per week (36 μg total), vs vehicle
Experimental: as §1, §2

[6] = test system: U251 glioma cells implanted intracranially; experiment: Orthotopic intracranial glioma model, U251, survival; assay type: in vivo, athymic nude mice; details: for median survival time: IT pump, control 23 days
Experimental: (§3) FIGS. 3A-3B. […] Human glioma cells U251 (FIG. 3A) or U87 (FIG. 3B) were implanted intracranially; subsequently, mice were given bortezomib (36 μg total) (square) or vehicle (circle) IV. The brain tumor size was monitored by optical imaging weekly, and animal survival data were analyzed by Kaplan-Meier plot.
FIG. 4. Bortezomib (BZM) administered intratumorally (IT) is effective in increasing survival. Glioma cells (U251) were implanted intracranially. After 10 days, animals were treated IT with vehicle; bortezomib IV (36 μg total); bortezomib IT (low dose, 0.36 μg total); bortezomib IT (medium dose, 1.2 μg total); and bortezomib IT (high dose, 3.6 μg total). […] CED=convection-enhanced delivery.
(§4) Briefly, athymic nude mice were anesthetized with ketamine and xylazine (10 mg/kg) and fixed into a stereotactic head frame (Harvard Apparatus). A 1.5-mm bur hole was drilled 1 mm anterior to the coronal suture on the right hemisphere and 2 mm lateral from the midline. A Hamilton syringe fixed onto the head frame was used to inject human glioma cells (2×10^5 cells/5 μl) into the right frontal lobe of the brain. The skin incision was then closed with 4-0 silk thread. The appropriate medications were provided to reduce pain.
(§5) Seven to 10 days after tumor cell implantation, imaging was used to confirm brain tumor formation. Briefly, mice were anesthetized using 2% isoflurane gas and injected intravenously (IV) with 50 mg/kg of D-Luciferin (Perkin Elmer) and placed into the IVIS Spectrum (Caliper Life Sciences). Analysis was performed with Living Image software (Caliper Life Sciences), in which circular regions of interest drawn over the tumor site were used, and results were reported as total flux (photons/second). Based on total flux, animals were randomly divided into experimental groups.
Once tumors were identified, approximately 7 days after intracranial tumor cell implantation, Alzet mini-osmotic pumps were filled with the desired dose of reagent and implanted. A plastic tube primed with the agent was used to connect the infusion kit to the brain. The assembled delivery system was stored at 4° C. overnight before implantation. Bortezomib was delivered into the tumor using the Alzet mini-osmotic pumps.
To anchor the pump to the animal, an incision was made in the scalp alongside the previous surgical scar. The caudal edge of the incision was pulled, and the connective tissues were separated. Subsequently a subcutaneous tunnel was prepared. The Alzet mini-osmotic pump was pushed backward to adjust the location of the brain infusion kit directly above the hole in the skull that had been previously drilled for tumor cell implantation. The infusion kit (plastic tubing) was gently inserted into the formed tumor. The plastic platform end was fixed onto the skull by using instant super glue. The area around the skin incision was sterilized and sutured with 4-0 silk thread. The contents of the Alzet mini-osmotic pump were released into the tumor at a rate of […]. The treatment groups (6 mice per group) were listed as the following: 1) pump-administered vehicle (saline); 2) bortezomib (0.3 mg/kg=36 μg in total) given by intravenous injection; 3) low-dose bortezomib (0.003 mg/kg=0.36 μg in total) intracranial pump delivery; 4) medium-dose bortezomib (0.01 mg/kg=1.2 μg in total) intracranial pump delivery; and 5) high-dose bortezomib (0.03 mg/kg=3.6 μg in total) intracranial pump delivery. In summary, bortezomib was administered for 14 days, either IV at 0.3 mg/kg twice weekly (total 4 injections in 14 days), or continuously into the intracranial tumor bed by using the Alzet mini-osmotic pump. After the treatment was completed (14 days), animals were left untreated until the appearance of neurological and behavioral abnormalities requiring euthanasia. Animals treated with vehicle received saline by Alzet mini-osmotic pump.
Survival data were plotted using the Kaplan-Meier method. […]

[7] = test system: U87 glioma cells implanted intracranially; experiment: Orthotopic intracranial glioma model, U87, survival; assay type: in vivo, athymic nude mice; details: IV 36 μg total
Experimental: as §3, §4
as §5, with “Based on total flux, animals were randomly divided into experimental groups.” left out

[8] = test system: intracranial glioma tumor; experiment: Histological investigation of tumor-bearing brains (H & E, TRA 1-85); assay type: in vivo, mice
Experimental: FIG. 6. […] Tumor-bearing animals were treated with intratumoral-administered bortezomib (A) or IV-administered-bortezomib (B). After 5 days the animals were euthanized, brains harvested, and stained with hematoxylin/eosin.
Tissues used for histological investigation were fixed in 10% formalin, embedded in paraffin, and stained with H & E. The antibody TRA-1-85/CD147 (RD Systems) was used to stain for human cells.

Compound: CC(C)C[C@H](NC(=O)[C@H](Cc1ccccc1)NC(=O)c1cnccn1)B(O)O [bortezomib, [(1R)-3-methyl-1-[[(2S)-3-phenyl-2-(pyrazine-2-carbonylamino)propanoyl]amino]butyl]boronic acid]
- cytotoxicity ([1]; glioma stem cells): cytotoxic
- cytotoxicity ([1]; normal stem cells): not toxic
- proteasome activity in tumor-bearing brain vs vehicle (20S proteasome; 5 days, p=0.03): significantly reduced proteasome activity
- proteasome activity in tumor-bearing brain vs vehicle (20S proteasome; 7 days, p=0.03): significantly reduced proteasome activity
- proteasome activity in tumor-bearing brain vs vehicle (20S proteasome; 10 days, p=0.0048): significantly reduced proteasome activity
- tumor growth rate / tumor progression [2]: delayed tumor progression
- tumor growth rate / tumor progression ([2]; listed as Bortezomib): significantly (p=0.041) decreased tumor growth rate
- toxicity ([3]; 7.2 μg): toxic and fatal
- toxicity ([3]; 18.0 μg): toxic and fatal
- toxicity ([3]; 36.0 μg): toxic and fatal
- therapeutic benefit, Phase II trial (malignant gliomas / GBM; combination with tamoxifen, systemic, patients with malignant gliomas): no therapeutic benefit
- benefit, Phase II clinical trial (malignant gliomas / GBM; combination with vorinostat, bortezomib IV, GBM): no benefit
- IC50 [4]: 5 to 10 nM
- tumor growth rate [5]: significantly effective in delaying tumor growth
- tumor growth rate ([5]; listed as Bortezomib): significantly (p=0.0145) decreased tumor growth rate
- increase in survival ([6]; IT administration, median survival 23 to 37 days): approximately 40%
- survival, IT vs IV (36 μg) ([6]; U251 intracranial, IT high dose 3.6 μg total, p=0.0022): significantly enhanced survival
- survival, IT vs IV (36 μg) ([6]; U251 intracranial, IT low dose 0.36 μg total, p=0.1104): not significant
- survival, IT vs IV (36 μg) ([6]; U251 intracranial, IT medium dose 1.2 μg total, p=0.0005): significantly enhanced survival
- median survival time ([6]; U251 intracranial, high dose 3.6 μg total): 37 days
- median survival time ([6]; U251 intracranial, medium dose 1.2 μg total): 34 days
- survival vs vehicle ([6]; U251 intracranial, IV 0.3 mg/kg (36 μg total), 0.3 mg/kg): no significant differences in survival time; also recorded: not significant
- survival vs vehicle [7]: no significant differences
- tumor size (surface area), IV-treated animal relative to intratumoral-treated animal ([8]; Day 5, IV 36 μg total vs IT 3.6 μg total, H & E): approximately ten-fold larger
- tumor cell invasion into mouse brain, IV-treatment compared to IT-treated ([8]; anti-human antibody TRA 1-85 staining): greater tumor cell invasion
- microvessel densities vs vehicle-treated mice ([8]; data not shown): not significantly different
